Values after ≈ are worked out from the molar mass of the structure shown.
How the values were obtained:
melanoma = assay: SRB growth inhibition, melanoma lines of the NCI panel; format: cell-based, human; conditions: 48 hours
Source text: Human cancer cell lines from the 59-NCI Cancer Cell Line Panel including leukemia, melanoma and cancers of breast, brain, colon, lung, ovary, prostate and kidney, were purchased from the National Institute of Cancer (USA). The growth inhibition (GI50) of these cell lines treated with cucurbitacin B and cucurbitacin D in various concentrations was investigated.
59 human cancer cell lines were maintained in RPMI 1640 (Invitrogen Life Technologies, CA, USA) supplemented with 5% Fetal Bovine Serum, 2 mM L-glutamine and 1% Penicillin/Streptomycin (Invitrogen Life Technologies) at 37° C. with 5% CO2. All chemicals were purchased from Sigma (St. Louis, Mo., USA) unless specified otherwise.
Sulforhodamine B (SRB) assay was applied to determine the cytostatic effect of cucurbitacin B and cucurbitacin D. SRB is a dye that binds to cellular proteins and will be dissolved in base. The biomass of total protein can be measured at 520 nm using a plate reader.
Cells were inoculated into 96-well microtiter plates including “Time zero” (Tz) plates in 100 μl at cell concentrations from 5000 to 40,000 cells per well according to NCI guideline. The cells were incubated at 37° C. with 5% CO2 for 24 hours. […] Bound SRB was solubilized with 100-200 ul per well of 10 mM trizma base and absorbance was measured at a wavelength of 520 nm. The percentage of growth inhibition was calculated as follows: […]

[1] = tested on: colon cancer cell line (HT29); assay: MTT cell cytotoxicity assay, HT29; format: cell-based, human; conditions: 48 hours
Experimental: Three human cancer cell lines (HepG2(liver), HT29(colon) and MCF-7(breast)) were purchased from American Type Culture Collection (ATCC, Manassas, Va., USA). The cells were cultured in RPMI 1640 medium supplemented with 5% (v/v) fetal bovine serum (FBS) and 100 units/ml penicillin and streptomycin (Invitrogen Life Technologies) in a humidified 5% CO2 atmosphere at 37° C.
The cytotoxic effect of CuB and CuD on these three cancer cell lines were determined using MTT (3-[4,5-dimethylthiazol-2-yl]-2,5-diphenyl tetrazolium bromide) labeled cell cytotoxicity assay. A total of 1×10^4 cells were seeded into a 96-well plate for 24 hours prior to cucurbitacin B (CuB) or cucurbitacin D (CuD) treatment. They were then treated with different dosages of CuB/CuD for 48 hours. After the treatment, 20 μl of MTT (5 mg/ml) was added to each well and incubated for 4 hrs. Then the medium was discarded and 100 μl of dimethyl sulfoxide was added. The absorbance at 570 nm was then measured by using FLUOstar OPTIMA equipment (BMG, LABTECH GmbH, Germany). The percentage of inhibition against different dosages of CuB/CuD were plotted using the Prism software and the 50% inhibition concentration (IC50) were obtained.

[2] = tested on: Human cancer cell lines from the 59-NCI Cancer Cell Line Panel; assay: Apoptosis (Annexin V-FITC / PI) by flow cytometry, 18 selected NCI panel cell lines; format: cell-based; conditions: 48 hours; GI50, ½ GI50 and ¼ GI50
Experimental: Apoptosis is the important mechanism for cell death in normal cells. In cancer cells, this mechanism fails and cells proliferate without control. Human cancer cell lines from the 59-NCI Cancer Cell Line Panel including leukemia, melanoma and cancers of breast, brain, colon, lung, ovary, prostate and kidney were purchased from the National Institute of Cancer. […] They were treated with cucurbitacin B and cucurbitacin D at three different concentrations to elucidate their ability to induce any changes in cell cycle.
Cancer cell lines were maintained in RPMI 1640 supplemented with 5% Fetal Bovine Serum, 2 mM L-glutamine and 1% Penicillin/Streptomycin at 37° C. with 5% CO2. Cells were inoculated into tissue culture flask at cell concentrations from 50000 to 400,000 cells/ml according to the NCI guideline. The cells were incubated at 37° C. with 5% CO2 for 24 hours. Cucurbitacin B and cucurbitacin D were added to the cells of final concentrations ranging from 6 to 350 nM (GI50, ½ GI50 and ¼ GI50 of particular cell line) for 48 hours at 37° C. with 5% CO2. Cells (3×10^5) were then harvested and stained with 5 μl Annexin V-FITC and 10 μl propidium iodine (Becton Dickinson, CA, USA) for 15 minutes at room temperature. Ten thousands events were collected by the FACScaliber and the percentage of different cell populations were analyzed by the CellQuest™ software (Becton Dickinson).

hsp27 = assay: Western blot of hsp27 in HepG2, HT29 and MCF-7 cells; format: cell-based, human
Experimental: (§1) The human cancer cells line were serum starved for 18 hours prior to CuB/CuD treatment. Cells were incubated in a 6-well plate filled with 5 ml growth medium (RPMI with 0.2% FBS and 1% PS) at the cell density of 1×10^5 cells/ml, in the presence or absence of two different dosages of CuB/CuD for various time intervals. The drug treatment was terminated by centrifugation at 1,500 rpm for 5 minutes and the cells were rinsed twice with phosphate-buffered saline and lysed at 4° C. in a lysis buffer containing 50 mM Tris-HCl, pH7.5, 100 mM NaCl, 5 mM EDTA, 40 mM NaP2O7, 1% Triton X-100, 1 mM dithiothreitol, 200 μM Na3VO4, 100 uM phenylmethysufonyl fluoride, 2 μg/ml leupeptin, 4 μg/ml aprotinin and 0.7 μg/ml pepstatin. The insoluble protein lysate were removed by centrifugation for 10 minutes at 13,000 rpm. Fifteen micrograms of protein lysate was resolved using 10% SDS-polyacryamide gel electrophoresis (PAGE) and then subjected to western blot anaylsis. Western blots were performed with anti-Stat3, anti-Erk1/2 and anti-hsp27 antibodies specific for phosphor- and total Stat3, Erk and hsp27 proteins. The protein bands were then visualized with the Enhanced Chemiluminescence Plus (ECL Plus) detection system (Amersham). • 6.2.8.1 Inhibition Effect Cucurbitacin B/Cucurbitacin D on Stat3 Activation in HepG2 and HT29 Cells
(§2) Cells were incubated either with CuB or CuD (25 ug/ml or the dosage of IC50) for various time intervals (5, 10 or 30 mins, 1 or 4 hours). The Stat3 activation was detected by western blot.

[3] = tested on: Human cancer cell lines from the 59-NCI Cancer Cell Line Panel; format: cell-based
MAPK signaling pathway = assay: Western blot of MAPK / cell cycle signaling proteins in HL60 cells; format: cell-based, human
Experimental: (§3) Control cells, as well as cells treated with cucurbitacin B or cucurbitacin D, were harvested and collected by centrifugation. Whole cell extracts were then prepared by lysing the cells using 4% sodium dodecyl sulfate (SDS) gel sample buffer. Cell extracts were boiled for 10 min and chilled on ice, subjected to 12% SDS-polyacrylamide gel electrophoresis, and transferred to a PVDF membrane. Each membrane was cut into to two pieces with one piece incubated at 4° C. overnight with antibodies against cell cycle signaling proteins, such as ERK, phosphorlated-ERK, p38, phosphorlated-p38, Cyclin E, Retinoblastoma, phosphalated-Retinoblastoma and c-myc, and apoptotic protein (PARP). β-actin was used as a control for protein loading. All antibodies were obtained from Cell signaling Technologies (USA). Then membranes were incubated at 37° C. for 1 h with secondary antibody conjugated with peroxidase, and the signal was detected using chemiluminescence detection reagent. The relative protein level was calculated as the ratio of the optical density of the protein of interest to that of β-actin.

Erk1/2 = assay: Western blot of Erk1/2 in HepG2, HT29 and MCF-7 cells; format: cell-based, human
Experimental: as §1, §2

Stat3 = assay: Western blot of Stat3 activation in HepG2, HT29 and MCF-7 cells; format: cell-based, human
PARP = assay: Western blot of PARP cleavage in HL60 cells; format: cell-based, human
Experimental: as §3

[4] = tested on: Human liver cancer cell lines HepG2; assay: MTT cytotoxicity assay, matrix combination of CuB and Sb on liver cancer cells; format: cell-based; conditions: HepG2, 2 days, CuB 0 μM
Experimental: Human liver cancer cell lines HepG2 was purchased from American Type Culture Collection (ATCC, Manassas, Va., USA). The cells were cultured in RPMI 1640 medium supplemented with 5% (v/v) fetal bovine serum (FBS) and 100 units/ml penicillin and streptomycin (Invitrogen Life Technologies) in a humidified 5% CO2 atmosphere at 37° C.
A total of 1×10^4 cells were seeded into a 96-well plate for 24 hours prior to drug treatment. They were then treated with different dosages (a multiple of 20-fold of IC50 values) of CuB or Sb for 48 hours. After the treatment, 20 μl of MTT (5 mg/ml) was added to each well and incubated for 4 hrs. Then the medium was discarded and 100 μl of dimethyl sulfoxide was added. The absorbance at 570 nm was then measured by using FLUOstar OPTIMA equipment (BMG, LABTECH GmbH, Germany). The percentage of inhibition against different dosages of CuB or Sb were plotted using the Prism software and the 50% inhibition concentration (IC50) were obtained.
The cells were then treated for 2 days and the % inhibition of growth is determined.
The excess over Bliss additivism may be calculated using the following formula and shown in Table 4: • Bliss Additivism: Combined response=CuB+Sb−(CuB)(Sb) where each effect is expressed as fractional inhibition between 0 and 1 • Excess over additivism=observed response−combined response

## CC(C)(O)/C=C/C(=O)[C@](C)(O)[C@H]1[C@H](O)C[C@@]2(C)[C@@H]3CC=C4[C@@H](C[C@H](O)C(=O)C4(C)C)[C@]3(C)C(=O)C[C@]12C [cucurbitacin D]
melanoma
  GI50: 60 nM
[1]
  IC50: 0.27 µg/mL (≈ 0.523 µM)
[2]
  cell lines in which apoptosis was induced: 11 out of 18
hsp27; HT29, 10 minutes
  Hsp27 activation: significant up-regulation
hsp27; HepG2, 30 minutes
  Hsp27 activation: significant up-regulation
hsp27; MCF-7, 4 hours
  Hsp27 activation: significant up-regulation
[3]
  cell lines with G2/M arrest: 9 out of 18
[3]; SF-295, 48 hours
  cell cycle effect: G2/M arrest and endoreduplication
MAPK signaling pathway
  regulation of ERK, cyclin E, retinoblastoma phosphorylation and c-myc: ERK activation, followed by cyclin E down-regulation, inhibition of retinoblastoma's phosphorylation, and ultimately down-regulation of c-myc
Erk1/2; HT29, 5 minutes of treatment
  expression of Erk1/2: up-regulated the expression of Erk1/2 significantly
Erk1/2; HepG2, 30 minutes of treatment
  expression of Erk1/2: up-regulated the expression of Erk1/2 significantly
Erk1/2; MCF-7 cells, 5 minutes
  Erk activation: significant Erk activation
Stat3; HepG2 cells and HT29 cells, 25 ug/ml, 30 minutes
  Stat3 activation: inhibited significantly
Stat3; MCF-7 cells
  Stat3 activation: no significant change
PARP
  apoptosis marker PARP: cleavage of PARP

## CNC(=O)c1cc(Oc2ccc(NC(=O)Nc3ccc(Cl)c(C(F)(F)F)c3)cc2)ccn1 [sorafenib, reference compound]
[4]; Sb 0.1 μM
  % inhibition: 4.61%
  Excess over Highest Single Agent Model: 0
[4]; Sb 0.3 μM
  % inhibition: 27.69%
  Excess over Highest Single Agent Model: 0
[4]; Sb 0.9 μM
  % inhibition: 39.10%
  Excess over Highest Single Agent Model: 0
[4]; Sb 2.7 μM
  % inhibition: 35.35%
  Excess over Highest Single Agent Model: 0
[4]; Sb 8.4 μM
  % inhibition: 82.28%
  Excess over Highest Single Agent Model: 0

From patent US20090247495A1, “CU[…] AND USES THEREOF” (priority 2007, published 2009)
